Data reported in paper PMC7235042, “Venturicidin A, A Membrane-active Natural Product Inhibitor of ATP synthase Potentiates Aminoglycoside Antibiotics” (Scientific Reports, 2020).

Biological target: T1, AAC(6′)-Ie-APH(2′′)-Ia (Staphylococcus aureus, UniProt P0A0C1)
T1 construct: gene aacA-aphD; purified bifunctional enzyme (AAC and APH domains)
Test: absorbance at […] nm, DTNB detection of released CoA-SH
Type: biochemical
Settings: AAC activity; co-substrate gentamicin 112 µg/mL

T1 sequence (P0A0C1 whole entry, the tested form may be a part): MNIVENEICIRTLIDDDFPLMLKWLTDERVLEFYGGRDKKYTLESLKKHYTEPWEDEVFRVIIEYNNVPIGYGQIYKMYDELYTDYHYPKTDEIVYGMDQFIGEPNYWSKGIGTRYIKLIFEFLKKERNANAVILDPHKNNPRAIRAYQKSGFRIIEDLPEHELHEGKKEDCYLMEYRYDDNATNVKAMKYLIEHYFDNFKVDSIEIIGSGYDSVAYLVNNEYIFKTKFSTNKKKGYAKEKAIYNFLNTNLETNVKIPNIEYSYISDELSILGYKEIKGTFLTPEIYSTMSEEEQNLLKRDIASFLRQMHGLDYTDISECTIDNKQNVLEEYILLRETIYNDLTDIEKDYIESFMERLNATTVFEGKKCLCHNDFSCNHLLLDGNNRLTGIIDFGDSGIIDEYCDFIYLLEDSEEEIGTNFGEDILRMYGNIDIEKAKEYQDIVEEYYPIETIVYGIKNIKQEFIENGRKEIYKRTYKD

CC(=O)SCCNC(=O)CCNC(=O)[C@H](O)C(C)(C)COP(=O)(O)OP(=O)(O)OC[C@H]1O[C@@H](n2cnc3c(N)ncnc32)[C@H](O)[C@@H]1OP(=O)(O)O [acetyl CoA]
absorbance at 412 nm, DTNB detection of released CoA-SH: CoA–SH that is derived from acetyl CoA after antibiotic acetylation
